Experimental data taken from the supplement of paper PMC10307832.

Columns and labels:
Assay in all cases: relative viability (nuclei count vs DMSO), 5 days (fraction); higher = more cells survive
[1] = compound: Cn1cnc2c(F)c(Nc3ccc(Br)cc3Cl)c(C(=O)NOCCO)cc21 [Selumetinib] + CC(=O)c1c(C)c2cnc(Nc3ccc(N4CCNCC4)cn3)nc2n(C2CCCC2)c1=O [Palbociclib] (partner 0.5 µM)
Method in brief: (§1)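 The day after seeding in 1536-well plates, lung cancer cell lines were treated by pin tool with a single drug, or with a fixed anchor-drug dose together with five library-drug doses (not always all listed) in √10 steps. After 5 days, a combined fix-and-stain solution (final 0.05% Triton X-100, 1% formaldehyde, 1 ug/ml Hoechst) was added. Nuclei counted on 4× images gave relative viability as treated counts over vehicle counts, reported as the median of duplicate plates.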

[2] = compound: Cn1cnc2c(F)c(Nc3ccc(Br)cc3Cl)c(C(=O)NOCCO)cc21 [Selumetinib] + Cc1cc(Nc2cc(N3CCN(C)CC3)nc(Sc3ccc(NC(=O)C4CC4)cc3)n2)n[nH]1 [Tozasertib] (partner 0.1 µM)
Method in brief: as §1

[3] = compound: Cn1cnc2c(F)c(Nc3ccc(Br)cc3Cl)c(C(=O)NOCCO)cc21 [Selumetinib] + Cc1nc(NC(=O)N2CCC[C@H]2C(N)=O)sc1-c1ccnc(C(C)(C)C(F)(F)F)c1 [Alpelisib] (partner 2 µM)
Method in brief: as §1

[4] = compound: Cn1cnc2c(F)c(Nc3ccc(Br)cc3Cl)c(C(=O)NOCCO)cc21 [Selumetinib] + N=C(N)NC(=N)NCCc1ccccc1 [Phenformin] (partner 250 µM)
Method in brief: as §1

| Cell Line | relative viability ([1]; first compound 0.02 µM) | relative viability ([1]; first compound 0.06325 µM) | relative viability ([1]; first compound 0.2 µM) | relative viability ([1]; first compound 0.6325 µM) | relative viability ([2]; first compound 0.02 µM) | relative viability ([2]; first compound 0.06325 µM) | relative viability ([2]; first compound 0.2 µM) | relative viability ([2]; first compound 0.6325 µM) | relative viability ([3]; first compound 0.02 µM) | relative viability ([3]; first compound 0.06325 µM) | relative viability ([3]; first compound 0.2 µM) | relative viability ([3]; first compound 0.6325 µM) | relative viability ([4]; first compound 0.02 µM) | relative viability ([4]; first compound 0.06325 µM) | relative viability ([4]; first compound 0.2 µM) | relative viability ([4]; first compound 0.6325 µM) |
| --- | --- | --- | --- | --- | --- | --- | --- | --- | --- | --- | --- | --- | --- | --- | --- | --- |
| NCI-H650 | 0.395 | 0.571 | 0.516 | 0.521 | 0.85 | 0.692 | 0.864 | 0.533 | 1.33 | 1.08 | 1.19 | 1.09 | 0.521 | 0.407 | 0.551 | 0.54 |
| A-427 | 0.503 | 0.496 | 0.51 | 0.538 | 0.205 | 0.193 | 0.168 | 0.17 | 1.06 | 1.05 | 0.936 | 0.817 | 0.264 | 0.271 | 0.266 | 0.23 |
| EMC-BAC-2 | 0.554 | 0.53 | 0.55 | 0.52 | 0.383 | 0.361 | 0.349 | 0.387 | 0.678 | 0.694 | 0.645 | 0.712 | 0.559 | 0.583 | 0.552 | 0.537 |
| NCI-H520 | 0.211 | 0.236 | 0.237 | 0.258 | 0.477 | 0.435 | 0.461 | 0.52 | 0.992 | 0.762 | 0.86 | 1 | 0.616 | 0.659 | 0.671 | 0.784 |
| LOU-NH91 | 0.583 | 0.611 | 0.546 | 0.535 | 0.648 | 0.679 | 0.606 | 0.534 | 0.648 | 0.6 | 0.577 | 0.586 | 0.674 | 0.69 | 0.688 | 0.661 |
| HOP-62 | 0.469 | 0.489 | 0.458 | 0.37 | 0.377 | 0.317 | 0.376 | 0.328 | 0.86 | 0.962 | 0.965 | 0.465 | 0.753 | 0.657 | 0.624 | 0.465 |
| NCI-H1563 |  |  |  |  |  |  |  |  | 0.969 | 0.838 | 0.964 | 0.877 | 0.688 | 0.68 | 0.627 | 0.593 |
| NCI-H1792 | 0.646 | 0.566 | 0.46 | 0.4 |  |  |  |  | 0.684 | 0.603 | 0.485 | 0.386 | 0.192 |  | 0.144 | 0.229 |
| HCC-15 | 0.564 | 0.537 | 0.355 | 0.253 | 0.372 | 0.209 | 0.268 | 0.158 | 0.683 | 0.405 | 0.347 | 0.19 | 0.37 | 0.284 | 0.231 | 0.185 |
| HCC-366 | 0.3 | 0.31 | 0.256 | 0.143 | 0.127 | 0.109 | 0.104 | 0.0897 | 0.361 | 0.273 | 0.196 | 0.158 | 0.594 | 0.607 | 0.512 | 0.361 |
| LU99A | 0.427 | 0.418 | 0.375 | 0.425 | 0.274 | 0.278 | 0.266 | 0.276 | 0.551 | 0.501 | 0.489 | 0.573 | 0.905 | 0.799 | 0.85 | 0.835 |
| SW 1573 | 0.337 | 0.294 | 0.365 | 0.312 | 0.15 | 0.145 | 0.174 | 0.153 | 0.868 | 0.707 | 0.618 | 0.552 | 0.291 | 0.275 | 0.276 | 0.212 |
| NCI-H1703 |  |  |  |  |  |  |  |  | 0.368 | 0.25 | 0.327 | 0.314 |  |  |  |  |
| NCI-H2170 | 0.406 | 0.43 | 0.414 | 0.414 | 0.746 | 0.848 | 0.661 | 0.657 | 0.763 | 0.828 | 0.736 | 0.658 | 0.408 | 0.395 | 0.386 | 0.326 |
| NCI-H2087 | 0.197 | 0.168 | 0.144 | 0.0937 | 0.194 | 0.211 | 0.166 | 0.147 | 0.777 | 0.65 | 0.515 | 0.306 | 0.367 | 0.279 | 0.294 | 0.214 |
| LCLC-103H | 0.467 | 0.498 | 0.469 | 0.439 | 0.514 | 0.458 | 0.435 | 0.349 | 0.851 | 0.917 | 0.841 | 0.874 | 0.329 | 0.326 | 0.293 | 0.337 |
| NCI-H1755 | 0.41 | 0.437 | 0.444 | 0.422 | 0.597 | 0.552 | 0.563 | 0.558 | 0.896 | 0.845 | 0.783 | 0.856 | 0.628 | 0.594 | 0.584 | 0.53 |
| NCI-H1650 | 0.312 | 0.26 | 0.357 | 0.27 | 0.332 | 0.394 | 0.312 | 0.308 |  |  |  |  | 0.424 | 0.371 | 0.444 | 0.35 |
| HARA | 0.359 | 0.244 | 0.236 | 0.165 | 0.108 | 0.115 | 0.111 | 0.102 | 0.701 | 0.647 | 0.549 | 0.353 | 0.502 | 0.387 | 0.48 | 0.299 |
| Calu-6 |  |  |  |  |  |  |  |  | 0.936 | 0.613 | 0.486 | 0.346 |  |  |  |  |
| NCI-H1975 | 0.517 | 0.509 | 0.467 | 0.388 | 0.753 | 0.703 | 0.684 | 0.591 | 0.643 | 0.511 | 0.413 | 0.37 | 0.426 | 0.378 | 0.379 | 0.34 |
| SK-MES-1 | 0.304 | 0.322 | 0.315 | 0.264 | 1.08 | 0.894 | 0.949 | 0.676 | 0.851 | 0.587 | 0.56 | 0.396 | 0.667 | 0.599 | 0.637 | 0.462 |
